{
  "source": "ChEMBL document CHEMBL6096719",
  "about": "“Kidney Targeting Smart Antibiotic Discovery: Multimechanism Pleuromutilins for Pyelonephritis Therapy” (J Med Chem, 2025)",
  "key": {"[1]": {"system": "Cell membrane", "experiment": "Disruption of cell membrane in methicillin-resistant Staphylococcus aureus ATCC33591 assessed as disrupted, furrowed, crumpled cell envelope at 0.125 to 0.5 ug/ml incubated for 2 hrs by propidium iodide staining based confocal laser scanning microscopy", "type": "subcellular", "conditions": "dose 0.125-0.5 µg/ml"}, "[2]": {"system": "Cell membrane", "experiment": "Disruption of cell membrane in Escherichia coli ATCC25922 assessed as induction of cell death by measuring increase in propidium iodide fluorescence intensity at 0.5 ug/ml incubated for 2 hrs by fluorescence field microscopy", "type": "subcellular", "conditions": "dose 0.5 µg/ml"}, "[3]": {"system": "Cell membrane", "experiment": "Disruption of cell membrane in methicillin-resistant Staphylococcus aureus ATCC33591 assessed as decrease in intracellular ATP content at 0.125 to 0.25 ug/ml incubated for 30 mins by luminescence based analysis", "conditions": "dose 0.125-0.25 µg/ml"}, "[4]": {"system": "Pseudomonas aeruginosa", "experiment": "Antibacterial activity against multidrug-resistant Pseudomonas aeruginosa 126 assessed as inhibition of bacterial growth incubated for 24 hrs by broth microdilution method", "type": "functional"}, "[5]": {"system": "Klebsiella pneumoniae", "experiment": "Antibacterial activity against multidrug-resistant Klebsiella pneumoniae 893 assessed as inhibition of bacterial growth incubated for 24 hrs by broth microdilution method", "type": "functional"}, "[6]": {"experiment": "Observed apparent oral clearance in Sprague-Dawley rat at 10 mg/kg, po", "type": "ADME, organism-based", "conditions": "in vivo"}, "[7]": {"system": "Metamycoplasma hominis", "experiment": "Anti-mycoplasma activity against Mycoplasma hominis PG-21 ATCC23114 assessed as inhibition of bacterial growth incubated for 1 to 2 days by broth microdilution method", "type": "functional", "conditions": "time 1-2 day"}, "[8]": {"system": "Staphylococcus aureus", "experiment": "Antibacterial activity against methicillin-resistant Staphylococcus aureus ATCC33591 infected in systemic intraperitoneal infection Kunming mouse model assessed as increase in animal's survival rate at 5 mg/kg, ip treated at 1 hr post-infection and measured on day 7", "type": "functional", "conditions": "ATCC33591, 168 h, time 7 day"}, "[9]": {"system": "Staphylococcus aureus", "experiment": "Antibiofilm activity against methicillin-resistant Staphylococcus aureus ATCC33591 assessed as eradication of preformed biofilms incubated for 24 hrs with preformed biofilms by crystal violet staining based analysis", "type": "functional, organism-based", "conditions": "dose 0.125-0.5 µg/ml"}, "[10]": {"system": "Cell membrane", "experiment": "Disruption of cell membrane in Escherichia coli ATCC25922 assessed as leakage of bacterial cell contents by measuring increase in conductivity of bacterial solution at MIC measured for 6 hrs by conductivity meter analysis"}, "[11]": {"experiment": "Cmax in Sprague-Dawley rat at 5 mg/kg, iv", "type": "ADME, organism-based", "conditions": "in vivo"}, "[12]": {"system": "Mesomycoplasma hyorhinis", "experiment": "Anti-mycoplasma activity against Mycoplasma hyorhinis BTS-7 NCTC10130 assessed as inhibition of bacterial growth incubated for 3 to 5 days by broth microdilution method", "type": "functional", "conditions": "time 3-5 day"}, "[13]": {"system": "Escherichia coli", "experiment": "Antibacterial activity against Escherichia coli ATCC25922 infected in pyelonephritis C57BL/6 mouse model assessed as recovery of white blood cells count in blood at 3 to 10 mg/kg, iv qd for 3 days administered at 2 days post-infection", "type": "functional, organism-based", "conditions": "dose 3-10 mg/kg, time 3.0 day"}, "[14]": {"system": "Cell membrane", "experiment": "Disruption of cell membrane in methicillin-resistant Staphylococcus aureus ATCC33591 assessed as leakage of bacterial cell contents by measuring increase in conductivity of bacterial solution at MIC measured for 6 hrs by conductivity meter analysis"}, "[15]": {"system": "Acinetobacter baumannii", "experiment": "Antibacterial activity against carbapenem-resistant Acinetobacter baumannii 882 assessed as inhibition of bacterial growth incubated for 24 hrs by broth microdilution method", "type": "functional"}, "[16]": {"system": "Escherichia coli", "experiment": "Antibacterial activity against Escherichia coli ATCC25922 infected in pyelonephritis C57BL/6 mouse model assessed as decrease in bacterial load in kidney at 3 to 10 mg/kg, iv qd for 3 days administered at 2 days post-infection", "type": "functional, organism-based", "conditions": "dose 3-10 mg/kg, time 3.0 day"}, "[17]": {"system": "Escherichia coli", "experiment": "Antibacterial activity against Escherichia coli ATCC25922 infected in pyelonephritis C57BL/6 mouse model assessed as decrease in kidney swelling at 3 to 10 mg/kg, iv qd for 3 days administered at 2 days post-infection", "type": "functional, organism-based", "conditions": "dose 3-10 mg/kg, time 3.0 day"}, "[18]": {"system": "Cell membrane", "experiment": "Disruption of cell membrane in methicillin-resistant Staphylococcus aureus ATCC33591 assessed as increase in extracellular ATP content at 0.125 to 0.25 ug/ml incubated for 30 mins by luminescence based analysis", "conditions": "dose 0.125-0.25 µg/ml"}, "[19]": {"system": "Staphylococcus aureus", "experiment": "Antibacterial activity against methicillin-resistant Staphylococcus aureus ATCC 33591 assessed as inhibition of bacterial growth incubated for 24 hrs by broth microdilution method", "type": "functional"}, "[20]": {"system": "Mycoplasmoides pneumoniae", "experiment": "Anti-mycoplasma activity against Mycoplasma pneumoniae M129 ATCC29342 assessed as inhibition of bacterial growth incubated for 3 to 5 days by broth microdilution method", "type": "functional", "conditions": "time 3-5 day"}, "[21]": {"system": "Escherichia coli", "experiment": "Antibacterial activity against Escherichia coli ATCC25922 infected in pyelonephritis C57BL/6 mouse model assessed as decrease in IL-1 beta level in kidney at 3 to 10 mg/kg, iv qd for 3 days administered at 2 days post-infection by ELISA", "type": "functional, organism-based", "conditions": "dose 3-10 mg/kg, time 3.0 day"}, "[22]": {"system": "Staphylococcus aureus", "experiment": "Antibacterial activity against methicillin-resistant Staphylococcus aureus ATCC33591 infected in systemic intraperitoneal infection Kunming mouse model assessed as decrease in bacterial colonies in lungs administered intraperitoneally at 1 hr post-infection and measured after 7 days", "type": "functional, organism-based", "conditions": "dose 5-20 mg/kg, route ip, time 7.0 day"}, "[23]": {"system": "Staphylococcus aureus", "experiment": "Antibacterial activity against methicillin-resistant Staphylococcus aureus ATCC 43300 assessed as inhibition of bacterial growth incubated for 24 hrs by broth microdilution method", "type": "functional"}, "[24]": {"target": "Solute carrier family 22 member 1 (Homo sapiens, UniProt O15245)", "sequence (O15245 whole entry)": "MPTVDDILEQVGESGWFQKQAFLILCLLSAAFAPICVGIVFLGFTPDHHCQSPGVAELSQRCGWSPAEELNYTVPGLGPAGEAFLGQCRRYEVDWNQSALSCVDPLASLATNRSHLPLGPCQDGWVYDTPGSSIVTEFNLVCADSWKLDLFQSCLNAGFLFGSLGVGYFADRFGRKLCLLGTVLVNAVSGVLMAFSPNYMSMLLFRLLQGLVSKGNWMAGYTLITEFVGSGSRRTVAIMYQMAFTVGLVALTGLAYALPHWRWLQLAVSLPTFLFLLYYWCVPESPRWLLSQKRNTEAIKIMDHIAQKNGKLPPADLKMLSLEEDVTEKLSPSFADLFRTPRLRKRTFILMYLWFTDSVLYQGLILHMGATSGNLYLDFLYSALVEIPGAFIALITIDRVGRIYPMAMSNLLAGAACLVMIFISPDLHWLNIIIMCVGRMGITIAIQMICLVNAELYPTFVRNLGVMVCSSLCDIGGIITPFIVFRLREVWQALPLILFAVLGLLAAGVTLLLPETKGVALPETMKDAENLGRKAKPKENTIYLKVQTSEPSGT", "experiment": "Substrate activity at human OCT1 transfected in HEK293 cells assessed as increase in intracellular drug content at 100 uM measured after 5 mins", "type": "ADME, cell-based", "conditions": "hek293, 5 min"}, "[25]": {"system": "Cell membrane", "experiment": "Disruption of cell membrane in methicillin-resistant Staphylococcus aureus ATCC33591 assessed as decrease in intracellular pH at 0.125 ug/ml incubated for 30 mins by cFDA-SE probe based fluorescence analysis", "conditions": "dose 0.125 µg/ml"}, "[26]": {"system": "Escherichia coli", "experiment": "Antibiofilm activity against Escherichia coli ATCC25922 assessed as eradication of preformed biofilms incubated for 24 hrs with preformed biofilms by crystal violet staining based analysis", "type": "functional, organism-based", "conditions": "dose 0.125-0.5 µg/ml"}, "[27]": {"system": "Escherichia coli", "experiment": "Antibacterial activity against Escherichia coli ATCC25922 infected in pyelonephritis C57BL/6 mouse model assessed as saturated bacterial clearance at >=5 mg/kg, iv qd for 3 days administered at 2 days post-infection", "type": "functional, organism-based", "conditions": "time 3.0 day"}, "[28]": {"system": "Escherichia coli", "experiment": "Antibacterial activity against Escherichia coli CMCC 44103 assessed as inhibition of bacterial growth incubated for 24 hrs by broth microdilution method", "type": "functional"}, "[29]": {"target": "Voltage-gated inwardly rectifying potassium channel KCNH2 (Homo sapiens, UniProt Q12809)", "sequence (Q12809 whole entry)": "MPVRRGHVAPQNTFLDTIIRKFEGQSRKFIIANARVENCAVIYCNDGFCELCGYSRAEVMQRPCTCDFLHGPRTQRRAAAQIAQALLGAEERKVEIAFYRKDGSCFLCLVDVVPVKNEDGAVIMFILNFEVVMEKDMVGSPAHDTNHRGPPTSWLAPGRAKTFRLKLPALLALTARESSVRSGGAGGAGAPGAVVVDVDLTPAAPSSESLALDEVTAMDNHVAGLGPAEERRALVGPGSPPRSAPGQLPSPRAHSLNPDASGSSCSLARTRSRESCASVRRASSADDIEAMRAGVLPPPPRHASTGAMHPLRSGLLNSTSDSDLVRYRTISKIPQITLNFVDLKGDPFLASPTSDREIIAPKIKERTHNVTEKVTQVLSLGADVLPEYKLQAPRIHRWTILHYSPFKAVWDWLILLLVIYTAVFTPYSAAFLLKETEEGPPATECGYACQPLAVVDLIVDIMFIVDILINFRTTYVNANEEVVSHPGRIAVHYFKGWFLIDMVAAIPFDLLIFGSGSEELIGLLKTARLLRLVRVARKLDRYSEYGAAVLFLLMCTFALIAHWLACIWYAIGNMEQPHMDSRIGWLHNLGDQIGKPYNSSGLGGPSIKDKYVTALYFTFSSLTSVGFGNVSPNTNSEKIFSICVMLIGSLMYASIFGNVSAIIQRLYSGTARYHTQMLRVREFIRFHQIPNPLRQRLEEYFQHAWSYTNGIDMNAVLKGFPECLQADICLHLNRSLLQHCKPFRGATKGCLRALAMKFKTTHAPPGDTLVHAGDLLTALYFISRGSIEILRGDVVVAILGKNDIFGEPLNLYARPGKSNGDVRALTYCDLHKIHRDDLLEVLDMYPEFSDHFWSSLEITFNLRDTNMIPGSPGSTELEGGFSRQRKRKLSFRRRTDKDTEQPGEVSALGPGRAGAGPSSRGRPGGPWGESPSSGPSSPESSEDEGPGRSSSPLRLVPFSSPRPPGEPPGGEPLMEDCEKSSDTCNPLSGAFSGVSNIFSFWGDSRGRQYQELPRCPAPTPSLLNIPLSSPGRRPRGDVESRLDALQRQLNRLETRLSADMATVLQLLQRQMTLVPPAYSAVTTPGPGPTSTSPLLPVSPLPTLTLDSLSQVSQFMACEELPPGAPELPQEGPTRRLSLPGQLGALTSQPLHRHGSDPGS", "experiment": "Inhibition of hERG expressed in HEK293 cells assessed as inhibition of tail current measured at holding potential of -80 mV by automated patch clamp analysis", "type": "toxicity, cell-based"}, "[30]": {"system": "Mycoplasmopsis synoviae", "experiment": "Anti-mycoplasma activity against Mycoplasma synoviae WVU1853 NCTC10124 assessed as inhibition of bacterial growth incubated for 3 to 5 days by broth microdilution method", "type": "functional", "conditions": "time 3-5 day"}, "[31]": {"system": "Escherichia coli", "experiment": "Antibacterial activity against Escherichia coli ATCC25922 infected in pyelonephritis C57BL/6 mouse model assessed as restoration of normal renal cortex and pelvis structures at >=5 mg/kg, iv qd for 3 days administered at 2 days post-infection by Hematoxylin-Eosin staining based analysis", "type": "functional, organism-based", "conditions": "time 3.0 day"}, "[32]": {"system": "Staphylococcus aureus", "experiment": "Antibacterial activity against methicillin-resistant Staphylococcus aureus ATCC33591 infected in systemic intraperitoneal infection Kunming mouse model assessed as decrease in inflammation and neutrophil infiltration in kidney at 5 mg/kg, ip treated at 1 hr post-infection and measured after 7 days by Hematoxylin-Eosin staining based analysis", "type": "functional, organism-based", "conditions": "time 7.0 day"}},
  "note": "Active and inactive are the calls of the source. The rule behind the calls is not given here.",
  "data": [
    {"smiles": "C=C[C@]1(C)C[C@@H](OC(=O)CSc2nc3cc[n+](Cc4ccc(C)cc4)cc3[nH]2)[C@]2(C)[C@H](C)CC[C@]3(CCC(=O)[C@H]32)[C@@H](C)[C@@H]1O.[Br-]", "values": [
      {"measurement": "Activity", "setting": "[1]", "result": "Active"},
      {"measurement": "Activity", "setting": "[2]", "result": "Active"},
      {"measurement": "Activity", "setting": "[3]", "result": "Active"},
      {"measurement": "MIC", "setting": "[4]", "result": 4, "unit": "µg/mL"},
      {"measurement": "MIC", "setting": "[5]", "result": 2, "unit": "µg/mL"},
      {"measurement": "CL/F", "setting": "[6]", "result": 10.5, "unit": "mL/min/kg"},
      {"measurement": "MIC", "setting": "[7]", "result": "< 0.04", "unit": "µg/mL"},
      {"measurement": "survival at 5 mg/kg", "setting": "[8]", "result": 80, "unit": "%"},
      {"measurement": "Activity", "setting": "[9]", "result": "Dose-dependent-effect"},
      {"measurement": "Activity", "setting": "[10]", "result": "Active"},
      {"measurement": "Cmax", "setting": "[11]", "result": 25600, "unit": "ng/mL"},
      {"measurement": "MIC", "setting": "[12]", "result": "< 0.04", "unit": "µg/mL"},
      {"measurement": "Activity", "setting": "[13]", "result": "Active"},
      {"measurement": "Activity", "setting": "[14]", "result": "Active"},
      {"measurement": "MIC", "setting": "[15]", "result": 4, "unit": "µg/mL"},
      {"measurement": "Activity", "setting": "[16]", "result": "Active"},
      {"measurement": "Activity", "setting": "[17]", "result": "Active"},
      {"measurement": "Activity", "setting": "[18]", "result": "Active"},
      {"measurement": "MIC", "setting": "[19]", "result": "< 1", "unit": "µg/mL"},
      {"measurement": "MIC", "setting": "[20]", "result": "< 8", "unit": "ng/mL"},
      {"measurement": "Activity", "setting": "[21]", "result": "Dose-dependent-effect"},
      {"measurement": "Activity", "setting": "[22]", "result": "Active; Superior Efficacy Compared To Valnemulin Observed"},
      {"measurement": "MIC", "setting": "[23]", "result": "< 1", "unit": "µg/mL"},
      {"measurement": "Activity", "setting": "[24]", "result": "Active"},
      {"measurement": "Activity", "setting": "[25]", "result": "Active"},
      {"measurement": "Activity", "setting": "[26]", "result": "Dose-dependent-effect"},
      {"measurement": "Activity", "setting": "[27]", "result": "Active"},
      {"measurement": "MIC", "setting": "[28]", "result": "< 1", "unit": "µg/mL"},
      {"measurement": "IC50", "setting": "[29]", "result": 71.5, "unit": "µM"},
      {"measurement": "MIC", "setting": "[30]", "result": "< 0.04", "unit": "µg/mL"},
      {"measurement": "Activity", "setting": "[31]", "result": "Active"},
      {"measurement": "Activity", "setting": "[32]", "result": "Active; Nearly Restoration Of Normal Histology Observed"}
    ]}
  ]
}
